In brackets after ≈: the same amount, converted by molar mass.
Tests used:
Format in all cases: cell-based
Aspergillus sp. = experiment: Microbroth dilution assay, MIC over the three species; conditions: no visual growth of the three species of Aspergillus, 48 h
Description: (§1) Pathogenic strains of fungi were obtained from the Mycology Department of Vallabhbhai Patel Chest Institute, Delhi. All the strains were grown on Sabouraud dextrose agar at 37°C. The conidia form these cultures were harvested and suspended in Sabouraud maltose broth. The number of conidia was counted using haemocytometer and their number in the suspension was adjusted to as per need of the experiment.
The antifungal susceptibility of the fungi to various fractions or the purified component was assayed by the microbroth, dilution method (Forthergill A.W. and McGough A.W., 1995, Clin. Microbiol. Procedure Handbook. In Vitro susceptibility Testing of Yeast, 5.15.1-5.15.15). The fungal spores were harvested from 96-h cultures and their number adjusted to 1x10^6 per ml. The Sabouraud Dextrose medium was dissolved in glass double distilled water and autoclaved at 10 psi for 15 min. 90-µl medium was added into the wells of cell culture plates. The different concentrations of the extract, fractions or the purified compound were prepared in duplicate wells and then the wells were inoculated with 10 µl of spore suspension. The plates were incubated at 37°C and examined macroscopically after 48 h for the growth of fungal mycelia. The activity was represented as -ve if growth was there and +ve if medium appeared clear with out any growth of fungi. […]

RAW cells = test system: RAW cells
Description: The in vitro toxicity of the active molecule was studied by MTT assay using RAW cells (Mossman, T., 1983, J. Immunol. Methods, 65, 55-63).
The stock culture of RAW cells was obtained from National Facility for Cell and Tissue Culture, Pune. Cells were maintained in RPMI - 1640 medium supplemented with glutamine (2.3 gm/L), fetal calf serum (10% v/v) and gentamycin (50.0 mg/L) at 37°C in Nuair IR Autoflow water Jacketed carbon dioxide incubator.
The stock solution of the compound was prepared by dissolving 2.5 mg of the purified compound in minimum amount of DMSO and then diluted with double distilled water to make the final volume 1.0-ml. The different concentrations ranging from 1250.0 µg/ml to 19.5 µg/ml were tested in the cytotoxicity assay.
The cells were harvested at the log phase of growth confluency from the flask. The homogeneous suspension of cells was prepared in 2.0 ml of culture medium. The number of cells in the suspension was counted using a hemocytometer and the cell suspension was diluted in such a way so as to obtain 5x10^7 viable cells per ml. The viability of the cells was checked with trypan blue dye exclusion test. The cytotoxicity assay was performed in 96 wells flat bottom tissue culture plates (Nunc Nunclon). The cells ([…]) in 100.0 µl volume were seeded into each well. The plate was incubated at 37 °C in atmosphere of 5% (v/v) CO2 for 8 h. The wells were examined microscopically for the formation of monolayer of the cells. Various concentrations ranging from 1250.0 µg/ml to 19.5 µg/ml of the compound PC-1 (metelatropinyl ester) were added to the monolayer of cells. In +ve control wells, a known cytotoxic protein obtained from A. fumigatus, was used. […] After lysis of the cells, the plates were read at 540 nm using plate reader (Spectra Max 190, Molecular Device).
The toxicity of the compound was expressed as percentage with respect to that obtained in -ve control sample. The percent cytotoxicity was calculated using the formula given below. % Cytotoxicity = (OD in-ve control-OD in the test)/(OD in-ve control) × 100 [formula] […]

Aspergillus = experiment: Disc diffusion assay, overall result for Aspergillus; conditions: concentration developing zone of inhibition of 6.0-mm diameter
Description: as §1
The leftover residue was finally dissolved in methanol. Dried fractions were examined for their antifungal activity.
(§2) The disc diffusion test was performed as per described in the section of details of invention. Amphotericin B 1.25 µg/disc was used in assay as positive control standard drug. Additional discs impregnated with equivalent amount of solvent were also used in the assay as negative controls (Fig: 5). […] Table 2: Antifungal activity of compound by disc diffusion method

A.fumigatus = experiment: Disc diffusion assay
Description: as §1, §2
The potency of the compound was determined with the help of standard curve constructed using amphotericin B as standard drug against A.fumigatus. Standard curve was prepared according to method given in the Indian Pharmacopoeia. The corrected values of diameter of zone of inhibition along with lowest and highest values were determined. These values were plotted on semilog paper to prepare standard curve. The value of diameter of zone of inhibition obtained for compound was put into the standard curve and corresponding dose producing the effect equivalent to amphotericin B was determined to find out the potency of the compound (Fig: 6).

**Q.** How did the MIC (Aspergillus sp.) turn out when CCCCC(=O)OC(C)CC1NCC(C)=C1C (centres unmarked) [PC-1, 2-(3,4-dimethyl-2,5-dihydro-1H-pyrrol-2-yl)-1-methylethyl pentanoate] was run?
**A.** 87.5 mg/L (≈ 366 µM)

**Q.** What about the “concentration completely non-toxic to the cells” value (RAW cells) of the same molecule?
**A.** up to 312.5 µg/ml

**Q.** What about the “CT50 (dose cytotoxic to 50% of the cells)” value (RAW cells; RAW cells, MTT, 12 h) of the same molecule?
**A.** 889.2 µg/mL

**Q.** What about the “less cytotoxic than the standard antifungal drug such as Amphotericin B” value (RAW cells; comparison with Amphotericin B) of the same molecule?
**A.** 57.8 times

**Q.** And the MIC (Aspergillus)?
**A.** 5 µg/disc

**Q.** What about the MIC (Aspergillus; listed as novel antifungal lead molecule) of the same molecule?
**A.** 5.0 µg/disc

**Q.** What about the “amount of amphotericin B producing an equivalent diameter of zone of inhibition” value (A.fumigatus; 10 µg/disc of the compound, standard curve with amphotericin B) of the same molecule?
**A.** 2.67 µg

**Q.** What about the zone of inhibition at 5 µg/disc (A.fumigatus; Aspergillus fumigatus, 5.0 µg/disc, 48 hrs, read-out: Diameter of zone of inhibition) of the same molecule?
**A.** 6.25 mm

**Q.** And the zone of inhibition at 10 µg/disc (A.fumigatus; Aspergillus fumigatus, 10.0 µg/disc, 48 hrs, read-out: Diameter of zone of inhibition)?
**A.** 8.5 mm

**Q.** What about the zone of inhibition at 20 µg/disc (A.fumigatus; Aspergillus fumigatus, 20.0 µg/disc, 48 hrs, read-out: Diameter of zone of inhibition) of the same molecule?
**A.** 9.25 mm

**Q.** What about the “less potent as compared to amphotericin B” value (A.fumigatus; disc diffusion standard curve) of the same molecule?
**A.** 3.74 time

Source: patent EP1487791B1, “A NOVEL ANTIFUNGAL MOLECULE 2-(3,4-DIMETHYL-2,5-DIHYDRO-1H-PYRROL-2-YL)- METHYLETHYL PENTANOATE” (priority 2002, dated 2003)
